Measurements taken from patent US20120121591A1 (priority 2009, published 2012).
Like-named read-outs stand apart in the source and are kept apart here.

Columns and labels:
Format in all cases: cell-based
[1] = system: IFN-g secretion from T cells in human whole blood
hKv1.3 = hKv1.3 (Homo sapiens, UniProt P22001); assay: cell-based; conditions: Kv1.3 (IWQ) IC50 (nM, Avg)
[2] = system: IL-2 secretion from T cells in human whole blood; conditions: read-out: WB (IL-2) IC50 (nM, Avg)
[3] = read-out: WB (IFNg) IC50 (nM, Avg)
[4] = read-out: WB (IFNg) IC5- (nM, Avg)

Chain of hKv1.3 (P22001 whole entry): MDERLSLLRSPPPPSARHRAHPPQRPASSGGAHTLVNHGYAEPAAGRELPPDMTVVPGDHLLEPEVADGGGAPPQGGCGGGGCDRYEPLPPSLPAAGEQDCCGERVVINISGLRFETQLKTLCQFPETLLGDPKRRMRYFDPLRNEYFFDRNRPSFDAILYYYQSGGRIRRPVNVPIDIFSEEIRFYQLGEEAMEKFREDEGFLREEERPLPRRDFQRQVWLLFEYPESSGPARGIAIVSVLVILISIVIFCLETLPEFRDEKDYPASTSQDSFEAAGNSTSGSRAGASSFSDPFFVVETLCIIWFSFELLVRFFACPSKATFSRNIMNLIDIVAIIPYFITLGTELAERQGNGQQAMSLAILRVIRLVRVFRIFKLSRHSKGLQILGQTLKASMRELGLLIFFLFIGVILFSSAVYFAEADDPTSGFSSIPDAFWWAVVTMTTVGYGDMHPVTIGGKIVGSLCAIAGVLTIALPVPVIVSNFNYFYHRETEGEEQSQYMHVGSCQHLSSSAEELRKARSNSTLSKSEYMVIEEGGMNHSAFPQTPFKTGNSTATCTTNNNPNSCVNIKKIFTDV

Row | SMILES | IC50 [1, 3] [nM] | IC50 (hKv1.3) [nM] | IC50 [2] [nM] | IC50 [1, 4] [nM]
1 | CC[C@H](C)[C@@H]1NC(=O)[C@@H](NC(=O)[C@H](CO)NC(=O)[C@@H](N)CCCNC(=N)N)CSSC[C@@H](C(=O)O)NC(=O)[C@H]([C@@H](C)O)NC(=O)CNC(=O)[C@@H]2CSSC[C@@H]3NC(=O)[C@H](CCC(N)=O)NC(=O)[C@H](Cc4ccccc4)NC(=O)[C@H](C)NC(=O)[C@H]([C@@H](C)O)NC(=O)[C@H](CSSC[C@H](NC(=O)[C@H](Cc4ccccc4)NC(=O)[C@H](CCCCN)NC(=O)[C@H](CC(C)C)NC(=O)[C@H](CCCNC(=N)N)NC(=O)[C@H](Cc4ccc(O)cc4)NC(=O)[C@H](CCCCN)NC(=O)[C@H](CCSC)NC(=O)[C@H](CO)NC(=O)[C@H](Cc4c[nH]cn4)NC(=O)[C@H](CCCCN)NC3=O)C(=O)N[C@@H](CCCNC(=N)N)C(=O)N[C@@H](CCCCN)C(=O)N[C@@H]([C@@H](C)O)C(=O)N2)NC(=O)[C@H](CCCNC(=N)N)NC(=O)[C@H](CO)NC(=O)[C@H](CCCCN)NC(=O)[C@@H]2CCCN2C(=O)[C@H]([C@@H](C)CC)NC(=O)[C@H]([C@@H](C)O)NC(=O)[C@H](CC(=O)O)NC1=O [[Lys26]ShK] | 0.495 | 0.115 | 0.273 | –
2 | CC[C@H](C)[C@@H]1NC(=O)[C@@H](NC(=O)[C@H](CO)NC(=O)[C@@H](N)CCCNC(=N)N)CSSC[C@@H](C(=O)O)NC(=O)[C@H]([C@@H](C)O)NC(=O)CNC(=O)[C@@H]2CSSC[C@@H]3NC(=O)[C@H](CCC(N)=O)NC(=O)[C@H](Cc4ccccc4)NC(=O)[C@H](C)NC(=O)[C@H]([C@@H](C)O)NC(=O)[C@H](CSSC[C@H](NC(=O)[C@H](Cc4ccccc4)NC(=O)[C@H](CO)NC(=O)[C@H](CC(C)C)NC(=O)[C@H](CCCNC(=N)N)NC(=O)[C@H](Cc4ccc(O)cc4)NC(=O)[C@H](CCCCN)NC(=O)[C@H](CCSC)NC(=O)[C@H](CO)NC(=O)[C@H](Cc4c[nH]cn4)NC(=O)[C@H](CCCCN)NC3=O)C(=O)N[C@@H](CCCNC(=N)N)C(=O)N[C@@H](CCCCN)C(=O)N[C@@H]([C@@H](C)O)C(=O)N2)NC(=O)[C@H](CCCNC(=N)N)NC(=O)[C@H](CCCNC(=N)N)NC(=O)[C@H](CCCCN)NC(=O)[C@@H]2CCCN2C(=O)[C@H]([C@@H](C)CC)NC(=O)[C@H]([C@@H](C)O)NC(=O)[C@H](CC(=O)O)NC1=O [[Arg10]ShK] | 0.068 | 0.07 | 0.029 | –
3 | CCC[C@@H]1NC(=O)[C@H](CO)NC(=O)[C@H](Cc2c[nH]cn2)NC(=O)[C@H](CCCCN)NC(=O)[C@@H]2CSSC[C@@H]3NC(=O)[C@H]([C@@H](C)O)NC(=O)[C@H](CCCCN)NC(=O)[C@H](CCCNC(=N)N)NC(=O)[C@H](CSSC[C@H](NC(=O)[C@H](CCCNC(=N)N)NC(=O)[C@H](CO)NC(=O)[C@H](CCCCN)NC(=O)[C@@H]4CCCN4C(=O)[C@H]([C@@H](C)CC)NC(=O)[C@H]([C@@H](C)O)NC(=O)[C@H](CC(=O)O)NC(=O)[C@H]([C@@H](C)CC)NC(=O)[C@@H](NC(=O)[C@H](CO)NC(=O)[C@@H](N)CCCNC(=N)N)CSSC[C@@H](C(=O)N[C@@H](C)C(=O)O)NC(=O)[C@H]([C@@H](C)O)NC(=O)CNC3=O)C(=O)N[C@@H]([C@@H](C)O)C(=O)N[C@@H](C)C(=O)N[C@@H](Cc3ccccc3)C(=O)N[C@@H](CCCCN)C(=O)N2)NC(=O)[C@H](Cc2ccccc2)NC(=O)[C@H](CO)NC(=O)[C@H](CC(C)C)NC(=O)[C@H](CCCNC(=N)N)NC(=O)[C@H](Cc2ccc(O)cc2)NC(=O)[C@H](CCCCN)NC1=O [[Lys16,Nva21]ShK-Ala] | 0.307 | 13.5 | 0.164 | –
4 | CCCC[C@@H]1NC(=O)[C@H](CO)NC(=O)[C@H](Cc2c[nH]cn2)NC(=O)[C@H](CCCCN)NC(=O)[C@@H]2CSSC[C@@H]3NC(=O)[C@H]([C@@H](C)O)NC(=O)[C@H](CCCNC(=N)N)NC(=O)[C@H](CCCNC(=N)N)NC(=O)[C@H](CSSC[C@H](NC(=O)[C@H](CCCNC(=N)N)NC(=O)[C@H](CO)NC(=O)[C@H](CCCCN)NC(=O)[C@@H]4CCCN4C(=O)[C@H]([C@@H](C)CC)NC(=O)[C@H]([C@@H](C)O)NC(=O)[C@H](CC(=O)O)NC(=O)[C@H](CCC(=O)O)NC(=O)[C@@H](NC(=O)[C@H](CO)NC(=O)[C@@H](N)CCCNC(=N)N)CSSC[C@@H](C(N)=O)NC(=O)[C@H]([C@@H](C)O)NC(=O)CNC3=O)C(=O)N[C@@H]([C@@H](C)O)C(=O)N[C@@H](C)C(=O)N[C@@H](Cc3ccccc3)C(=O)N[C@@H](CCCCN)C(=O)N2)NC(=O)[C@H](Cc2ccccc2)NC(=O)[C@H](CO)NC(=O)[C@H](CC(C)C)NC(=O)[C@H](CCCNC(=N)N)NC(=O)[C@H](Cc2ccc(O)cc2)NC(=O)[C@H](CCCCN)NC1=O [[Glu4, Lys16, Nle21,Arg30]ShK-amide] | 1.34 | 0.132 | 1.18 | –
5 | CC[C@H](C)[C@@H]1NC(=O)[C@@H](NC(=O)[C@H](CO)NC(=O)[C@@H](N)CCCNC(=N)N)CSSC[C@@H](C(=O)O)NC(=O)[C@H]([C@@H](C)O)NC(=O)CNC(=O)[C@@H]2CSSC[C@@H]3NC(=O)[C@H](CCC(N)=O)NC(=O)[C@H](Cc4ccccc4)NC(=O)[C@H](C)NC(=O)[C@H]([C@@H](C)O)NC(=O)[C@H](CSSC[C@H](NC(=O)[C@H](Cc4ccccc4)NC(=O)[C@H](CCC(=O)O)NC(=O)[C@H](CC(C)C)NC(=O)[C@H](CCCNC(=N)N)NC(=O)[C@H](Cc4ccc(O)cc4)NC(=O)[C@H](CCCCN)NC(=O)[C@H](CCSC)NC(=O)[C@H](CO)NC(=O)[C@H](Cc4c[nH]cn4)NC(=O)[C@H](CCCCN)NC3=O)C(=O)N[C@@H](CCCNC(=N)N)C(=O)N[C@@H](CCCCN)C(=O)N[C@@H]([C@@H](C)O)C(=O)N2)NC(=O)[C@H](CCCNC(=N)N)NC(=O)[C@H](CO)NC(=O)[C@H](CCCCN)NC(=O)[C@@H]2CCCN2C(=O)[C@H]([C@@H](C)CC)NC(=O)[C@H]([C@@H](C)O)NC(=O)[C@H](CC(=O)O)NC1=O [[Glu26]ShK] | – | 0.317 | 0.202 | 0.4
6 | CCCC[C@@H]1NC(=O)[C@H](CO)NC(=O)[C@H](Cc2c[nH]cn2)NC(=O)[C@H](CCCCN)NC(=O)[C@@H]2CSSC[C@@H]3NC(=O)[C@H]([C@@H](C)O)NC(=O)[C@H](CCC(=O)O)NC(=O)[C@H](CCCNC(=N)N)NC(=O)[C@H](CSSC[C@H](NC(=O)[C@H](CCCNC(=N)N)NC(=O)[C@H](CO)NC(=O)[C@H](CCCCN)NC(=O)[C@@H]4CCCN4C(=O)[C@H]([C@@H](C)CC)NC(=O)[C@H]([C@@H](C)O)NC(=O)[C@H](CC(=O)O)NC(=O)[C@H]([C@@H](C)CC)NC(=O)[C@@H](NC(=O)[C@H](CO)NC(=O)[C@@H](N)CCCNC(=N)N)CSSC[C@@H](C(N)=O)NC(=O)[C@H]([C@@H](C)O)NC(=O)CNC3=O)C(=O)N[C@@H]([C@@H](C)O)C(=O)N[C@@H](C)C(=O)N[C@@H](Cc3ccccc3)C(=O)N[C@@H](CCCCN)C(=O)N2)NC(=O)[C@H](Cc2ccccc2)NC(=O)[C@H](CO)NC(=O)[C@H](CC(C)C)NC(=O)[C@H](CCCNC(=N)N)NC(=O)[C@H](Cc2ccc(O)cc2)NC(=O)[C@H](CCCCN)NC1=O [[Lys16, Nle21,Glu30]ShK-amide] | 5.03 | 1.88 | 3.18 | –
7 | CCCC[C@@H]1NC(=O)[C@H](CO)NC(=O)[C@H](Cc2c[nH]cn2)NC(=O)[C@H](CCCCN)NC(=O)[C@@H]2CSSC[C@@H]3NC(=O)[C@H]([C@@H](C)O)NC(=O)[C@H](CCCNC(=N)N)NC(=O)[C@H](CCCCN)NC(=O)[C@H](CSSC[C@H](NC(=O)[C@H](CCCNC(=N)N)NC(=O)[C@H](CO)NC(=O)[C@H](CCCCN)NC(=O)[C@@H]4CCCN4C(=O)[C@H]([C@@H](C)CC)NC(=O)[C@H]([C@@H](C)O)NC(=O)[C@H](CC(=O)O)NC(=O)[C@H](CCC(=O)O)NC(=O)[C@@H](NC(=O)[C@H](CO)NC(=O)[C@@H](N)CCCNC(=N)N)CSSC[C@@H](C(N)=O)NC(=O)[C@H]([C@@H](C)O)NC(=O)CNC3=O)C(=O)N[C@@H]([C@@H](C)O)C(=O)N[C@@H](C)C(=O)N[C@@H](Cc3ccccc3)C(=O)N[C@@H](CCCCN)C(=O)N2)NC(=O)[C@H](Cc2ccccc2)NC(=O)[C@H](Cc2cccc3ccccc23)NC(=O)[C@H](CC(C)C)NC(=O)[C@H](CCCNC(=N)N)NC(=O)[C@H](Cc2ccc(O)cc2)NC(=O)[C@H](CCCCN)NC1=O | 17.4 | 1.66 | 10.7 | –
8 | CC[C@H](C)[C@@H]1NC(=O)[C@@H](NC(=O)[C@H](CO)NC(=O)[C@@H](N)CCCNC(=N)N)CSSC[C@@H](C(=O)O)NC(=O)[C@H]([C@@H](C)O)NC(=O)CNC(=O)[C@@H]2CSSC[C@@H]3NC(=O)[C@H](CCC(N)=O)NC(=O)[C@H](Cc4ccccc4)NC(=O)[C@H](C)NC(=O)[C@H]([C@@H](C)O)NC(=O)[C@H](CSSC[C@H](NC(=O)[C@H](Cc4ccccc4)NC(=O)[C@H](CO)NC(=O)[C@H](CC(C)C)NC(=O)[C@H](CCCNC(=N)N)NC(=O)[C@H](Cc4ccc(O)cc4)NC(=O)[C@H](CCCCN)NC(=O)[C@H](CCC(=O)O)NC(=O)[C@H](CO)NC(=O)[C@H](Cc4c[nH]cn4)NC(=O)[C@H](CCCCN)NC3=O)C(=O)N[C@@H](CCCNC(=N)N)C(=O)N[C@@H](CCCCN)C(=O)N[C@@H]([C@@H](C)O)C(=O)N2)NC(=O)[C@H](CCCNC(=N)N)NC(=O)[C@H](CO)NC(=O)[C@H](CCCCN)NC(=O)[C@@H]2CCCN2C(=O)[C@H]([C@@H](C)CC)NC(=O)[C@H]([C@@H](C)O)NC(=O)[C@H](CC(=O)O)NC1=O [[Glu21]ShK] | – | 3.33 | 18.5 | 28.1
